Earlier results, collected in patent publication US20240139208A1, “COMBINED PHARMACEUTICAL COMPOSITION CONTAINING CDK4/6 INHIBITOR AND USE THEREOF” (CHIA TAI TIANQING PHARMACEUTICAL GROUP CO., LTD., priority 2021, published 2024).

C[C@]12CC[C@@H]3c4ccc(O)cc4C[C@@H](CCCCCCCCC[S+]([O-])CCCC(F)(F)C(F)(F)F)[C@H]3[C@@H]1CC[C@@H]2O (stereo partly drawn) [Fulvestrant, 7-α-[9-(4,4,5,5,5-pentafluoropentylsulfinyl)nonyl]estra-1,3,5-(10)-triene-3,17-β-diol]
solubility in water: insoluble
